Measured values as given in PubChem BioAssay AID720588 (Broad Institute, 2013).
Several values for one entry are separate records, joined by “and”; a condition that tells them apart may be missing. Identical values can stand only once.

These molecules were tested on HEK293T viability, CellTiter-Glo ATP luminescence, 72 h (assay: ATP-based viability loss in HEK293T cells – cell-based, CellTiter-Glo luminescence, cherry-pick, set 3, cytotoxicity control, dose response (AID 720588);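 note: potency for luminescence loss meaning cytotoxic compounds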).

In order of falling AC35:
1. C[C@H]1CN([C@@H](C)CO)C(=O)c2cc(N(C)C)ccc2O[C@@H]1CN(C)Cc1ccc(C(=O)Nc2ccccc2N)cc1  24.8 µM
2. CN1c2ccc(-c3ccc(C#N)cc3)cc2[C@H]2[C@H](CCN2S(=O)(=O)c2cccc(F)c2)[C@@H]1CO  23.4 µM
3. CC(=O)Nc1ccc(S(=O)(=O)Nc2ccc(N3CCCCC3)cc2)cc1  22.1 µM
4. CCCN1C/C(=C/c2ccc3c(c2)OCO3)C(=O)/C(=C/c2ccc3c(c2)OCO3)C1  21.2 µM
5. O=C1NC(=S)NC(=O)C1=Cc1cccn1-c1ccc(O)cc1  19.5 µM
6. O=C1NC(=O)N(c2ccccc2)C(=O)/C1=C\C=C\c1ccccc1  19.1 µM
7. CC(C)N1C/C(=C/c2cccnc2)C(=O)/C(=C/c2cccnc2)C1  18.7 µM
8. CCc1ccc(/C=C2\SC(=S)N(CCCC(=O)N3CCN(C)CC3)C2=O)cc1  17.6 µM
9. C[C@@H]1CCCCO[C@H](CN(C)Cc2ccc(C(=O)Nc3ccccc3N)cc2)[C@@H](C)CN([C@H](C)CO)C(=O)c2cc(NS(=O)(=O)c3ccc(Cl)cc3)ccc2O1  17.3 µM
10. CC(C)(C)c1ccc(/C=N/Nc2ccc(C(=O)O)cc2)cc1  16.5 µM
11. COc1ccc(C=C2CCc3ccccc3C2=O)cc1  16.2 µM
12. C[C@H](CO)N1C[C@H](C)[C@@H](CN(C)Cc2ccc(C(F)(F)F)cc2)OCCCC[C@H](C)Oc2ccc(NS(=O)(=O)c3ccc(F)cc3)cc2C1=O  15.1 µM
13. COc1ccc(S(=O)(=O)Nc2ccc3c(c2)C(=O)N([C@H](C)CO)C[C@@H](C)[C@@H](CN(C)Cc2ccc(C(=O)Nc4ccccc4N)cc2)O3)cc1  15 µM
14. C[C@@H]1CCCCO[C@H](CN(C)Cc2ccc(C(F)(F)F)cc2)[C@H](C)CN([C@H](C)CO)C(=O)c2cc(NC(=O)CCCN(C)C)ccc2O1  14.6 µM
15. O=C(NCc1ccc(F)cc1)N1[C@H]2CC[C@@H]1C=C(c1ccc(F)cc1OCc1ccccc1)C2  14.4 µM
16. O=C(Nc1ccccc1F)N1CCCCN2[C@H](CO)[C@H](c3ccc(/C=C/c4ccccc4)cc3)[C@H]2C1  13.7 µM
17. COc1ccccc1CNC(=O)C[C@@H]1CC[C@H]2[C@@H](COC[C@H](O)CN2C(=O)Nc2ccc(C(F)(F)F)cc2)O1  13.5 µM
18. CN(CCO)c1ccc(/C=N/Nc2nncc3ccccc23)cc1  13 µM
19. O=C1NC(=O)N(Cc2ccccc2)C(=O)/C1=C\C=C\c1ccco1  12.9 µM
20. C[C@@H]1CN([C@H](C)CO)C(=O)c2cc(NC(=O)Nc3ccccc3)ccc2O[C@@H]1CN(C)Cc1ccc(C(=O)Nc2ccccc2N)cc1  12.7 µM
21. CN(C)c1ccc(N=Nc2nc3ccccc3n2C)cc1  12.5 µM
22. C=CC[n+]1c(-c2ccc(C)cc2)csc1Nc1ccc(NC(C)=O)cc1  12.5 µM
23. NC(Cc1ccc(C(F)(F)F)cc1)c1csc(NC(=O)Nc2ccccc2Cc2ccccc2)n1 (stereo unspecified)  12.4 µM
24. S=c1[nH]nc(-c2cc(-c3ccccc3)n[nH]2)n1/N=C/C(Br)=C/c1ccccc1  12.4 µM
25. CCCCCCCCNC(C)C(O)c1ccc(SC(C)C)cc1 (stereo unspecified)  12.2 µM
26. O=C(O)c1ccc(N/N=C/c2ccc3nccnc3c2)cc1  11.9 µM
27. COc1cccc(O)c1CN1CCC(C(=O)Nc2ccc(-c3cccc(C)c3)cc2)CC1  11.8 µM
28. Cc1ccc2nc(-c3ccccc3)nn2c1  11.7 µM
29. CN(C)CC1CCC/C(=C\c2ccc(OC(=O)c3ccc(Cl)cc3)cc2)C1=O (stereo unspecified)  11.3 µM
30. CCN1CCS/C1=C\C=C\C1=[N+](CC)CCS1  11.2 µM
31. CN=c1scc(-c2ccccc2F)n1/N=C/c1ccc[nH]1  10.8 µM
32. CNC[C@H](CC1CCCCC1)NC[C@H](CO)NCCc1cccc(C(F)(F)F)c1  10.8 µM
33. COc1ccccc1C(CCNCc1ccc(N(C)C)cc1)c1ccc(OC(C)C)cc1 (stereo unspecified)  10.7 µM
34. Cc1cc(C)cc(N2C(=O)NC(=O)/C(=C\C=C\c3ccco3)C2=O)c1  10.6 µM
35. CCc1ccc(N2C=C(C(=O)OC)C(c3ccc(OC)cc3)C(C#N)=C2N)cc1 (stereo unspecified)  10.6 µM
36. CCCCCCCCCCCCCCCCn1cc[n+](C)c1  10.5 µM
37. OC[C@H]1[C@@H](c2ccc(C#CC3CCCC3)cc2)[C@@H]2CN(CCC(F)(F)F)CCCCN12  10.4 µM
38. Cc1cc2c(C(C)C)c(O)c(O)c(C=O)c2c(O)c1-c1c(C)cc2c(C(C)C)c(O)c(O)c(C=O)c2c1O  9.42 µM
39. O=C(Nc1ccc(F)cc1)N1CCCCN2[C@@H](CO)[C@H](c3ccc(C4=CCCCC4)cc3)[C@@H]2C1  9.39 µM
40. COc1ccc(-c2cnc3c(NC=O)cc(-c4ccccc4OC)cn23)cc1OC  9.05 µM
41. CCc1nc(N)nc(N)c1-c1ccc(Cl)c(N=[N+]=[N-])c1  8.98 µM
42. Nc1nc(N)c(-c2cccc(C(F)(F)F)c2)c(Cc2cccc(C(F)(F)F)c2)n1  8.95 µM
43. CC(C)N1C/C(=C/c2ccsc2)C(=O)/C(=C/c2ccsc2)C1  7.95 µM
44. C[C@@H]1CN([C@@H](C)CO)C(=O)c2cc(NS(=O)(=O)c3ccc(F)cc3)ccc2O[C@@H]1CN(C)Cc1ccc(C(=O)Nc2ccccc2N)cc1  7.54 µM
45. O=C(O)c1ccc(N/N=C/c2ccc3c(c2)OCO3)cc1  7.33 µM
46. CCCCCCCCCCCCCCCCCCNc1ccn(C2OC(COP(=O)(O)OCC3OC(n4cc(F)c(=O)[nH]c4=O)CC3O)C(O)C2O)c(=O)n1 (stereo unspecified)  6.6 µM
47. Oc1c(C(c2ccc(Cl)cc2)N2CCCC2)cc(Cl)c2cccnc12 (stereo unspecified)  6.54 µM
48. C(=N\Nc1nc2ccccc2[nH]1)/c1ccccn1  6.22 µM
49. C(=Cc1cnc2ccccc2n1)c1ccc2c(c1)OCO2  5.29 µM
50. COC(=O)C1=C(C)N(Cc2cccc(C(F)(F)F)c2)C(=NCc2ccc(OC)cc2)NC1c1cccc(F)c1 (stereo unspecified)  4.96 µM
51. Oc1[nH]c2ccc(Br)cc2c1N=NC(=S)N1CCOCC1  4.31 µM
52. CCOc1cc(/C=N/Nc2cc(C)nc(-n3nc(C)cc3C)n2)ccc1O  4.12 µM
53. C[C@H]1CN([C@@H](C)CO)C(=O)c2cc(N(C)C)ccc2O[C@H]1CN(C)Cc1ccc(C(=O)Nc2ccccc2N)cc1  3.65 µM
54. CCCCCCCCn1c2c(c(=N)c3c1CCC3)CCCC2  3.51 µM
55. C[C@@H]1CN([C@@H](C)CO)C(=O)c2cccc(NS(=O)(=O)c3ccccc3)c2O[C@@H]1CN(C)Cc1ccc(C(=O)Nc2ccccc2N)cc1  2.29 µM
56. CN(C)c1ccc(C=c2c3ccccc3n3c2c2c([n+]3C)CCCC2)cc1  2.08 µM
57. C[C@@H]1CN([C@H](C)CO)C(=O)c2cc(NC(=O)c3ccccc3)ccc2O[C@@H](C)CCCCO[C@H]1CN(C)C(=O)Nc1cccc2ccccc12  2.06 µM
58. CC(C)=CCC/C(C)=C/CN1C(=O)N(c2ccc(F)cc2)[C@H]2C[C@@H](c3ccccc3)[C@@H](C)[C@@H](C(=O)N3CCOCC3)C[C@H]21  2.01 µM
59. CC(=NNc1ccc2ccccc2n1)c1ccccn1  1.12 µM
60. C[C@]12CC[C@H]3[C@@H](CC[C@]4(O)C[C@@H](O)CC[C@]34C=O)[C@@]1(O)CC[C@@H]2C1=CC(=O)OC1  0.774 µM
61. C[C@]12CCC3C(CCC4=CC(O)CC[C@@]43/C=N/O)C1(O)CCC2C1=CC(=O)OC1 (stereo partly specified)  0.694 µM
62. COC1C(O)C(C)OC(OC2CCC3(C)C(CCC4C3C(O)CC3(C)C(C5=CC(=O)OC5)CCC43O)C2)C1O (stereo unspecified)  0.244 µM
63. CC(=O)OC1CC(OC2C(O)CC(OC3C(O)CC(OC4CCC5(C)C(CCC6C5CC(O)C5(C)C(C7=CC(=O)OC7)CCC65O)C4)OC3C)OC2C)OC(C)C1OC1OC(CO)C(O)C(O)C1O (stereo unspecified)  0.182 µM
64. COc1ccc(OC)c(Cc2cnc3nc(N)nc(N)c3c2C)c1  0.151 µM
65. Nc1ccc(Cn2ccc3c4c(N)nc(N)nc4ccc32)cc1  0.125 µM

For `C[C@H](O)C#Cc1ccc2c(c1)O[C@@H](CN(C)Cc1ccc(-c3ccccc3)cc1)[C@H](C)CN([C@@H](C)CO)S2(=O)=O`, the AC35 was 14.7 µM and 11.2 µM.
